According to ChEMBL document CHEMBL1138171, “5-Heteroatom-substituted pyrazoles as canine COX-2 inhibitors: Part 2. Structure-activity relationship studies of 5-alkylethers and 5-thioethers” (Bioorg Med Chem Lett, 2006):

Experiments:
Cyclooxygenase-2 = target: T1, Cyclooxygenase-2 (Canis lupus familiaris, UniProt Q8SPQ9)
T1 sequence (Q8SPQ9 whole entry): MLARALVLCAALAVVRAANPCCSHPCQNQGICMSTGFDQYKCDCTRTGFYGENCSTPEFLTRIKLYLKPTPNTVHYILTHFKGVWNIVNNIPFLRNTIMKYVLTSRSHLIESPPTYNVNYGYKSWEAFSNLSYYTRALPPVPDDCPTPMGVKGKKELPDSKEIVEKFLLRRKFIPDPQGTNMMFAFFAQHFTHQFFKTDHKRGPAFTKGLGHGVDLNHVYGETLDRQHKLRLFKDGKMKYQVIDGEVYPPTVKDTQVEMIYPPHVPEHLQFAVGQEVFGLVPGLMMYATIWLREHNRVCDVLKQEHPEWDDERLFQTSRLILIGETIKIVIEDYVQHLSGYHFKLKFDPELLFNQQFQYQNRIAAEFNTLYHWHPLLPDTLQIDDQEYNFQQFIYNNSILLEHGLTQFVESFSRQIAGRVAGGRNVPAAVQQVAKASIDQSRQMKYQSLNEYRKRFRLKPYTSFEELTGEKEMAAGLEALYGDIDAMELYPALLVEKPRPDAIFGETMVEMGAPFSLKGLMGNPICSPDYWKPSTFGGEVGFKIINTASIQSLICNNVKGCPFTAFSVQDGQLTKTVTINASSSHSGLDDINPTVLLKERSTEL
Description: Inhibition of COX2 by canine whole blood assay

Canis lupus familiaris = species: Canis lupus familiaris; assay: Selectivity for COX1 over COX2 by canine whole blood assay
[1] = target: T2, Prostaglandin G/H synthase 1 (Canis lupus familiaris, UniProt Q8HZR1); assay: Inhibition of COX1 by canine whole blood assay; format: tissue-based
T2 sequence (Q8HZR1 whole entry): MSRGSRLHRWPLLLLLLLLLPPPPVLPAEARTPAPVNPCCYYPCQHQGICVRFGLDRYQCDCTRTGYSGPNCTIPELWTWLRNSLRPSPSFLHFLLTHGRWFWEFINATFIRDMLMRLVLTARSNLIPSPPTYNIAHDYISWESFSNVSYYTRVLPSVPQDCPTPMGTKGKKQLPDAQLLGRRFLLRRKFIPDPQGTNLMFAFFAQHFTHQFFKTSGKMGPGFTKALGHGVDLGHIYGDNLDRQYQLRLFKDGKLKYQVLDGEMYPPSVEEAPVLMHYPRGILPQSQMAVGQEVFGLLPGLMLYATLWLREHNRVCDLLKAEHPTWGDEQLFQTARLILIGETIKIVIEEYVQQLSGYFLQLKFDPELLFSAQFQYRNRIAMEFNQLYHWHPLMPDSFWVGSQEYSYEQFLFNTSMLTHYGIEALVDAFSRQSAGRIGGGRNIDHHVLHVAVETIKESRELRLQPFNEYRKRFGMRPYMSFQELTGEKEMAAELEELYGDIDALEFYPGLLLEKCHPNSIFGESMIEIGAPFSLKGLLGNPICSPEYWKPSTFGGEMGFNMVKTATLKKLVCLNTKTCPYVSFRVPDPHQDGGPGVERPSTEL

Canis familiaris [2] = assay: AUC in Beagle dog at 2 mg/kg, po; format: ADME, organism-based, Canis lupus familiaris, Plasma; set-up: dose 2 mg/kg, route oral; details: in vivo
[3] = Cmax in Beagle dog at 2 mg/kg, po; format: ADME, organism-based, Canis lupus familiaris; set-up: dose 2 mg/kg, route oral; details: in vivo
[4] = Tmax in Beagle dog at 2 mg/kg, po; format: ADME, organism-based, Canis lupus familiaris; set-up: dose 2 mg/kg, route oral; details: in vivo
[5] = Half life in Beagle dog at 2 mg/kg, po; format: ADME, organism-based, Canis lupus familiaris; set-up: dose 2 mg/kg, route oral; details: in vivo
[6] = Cmax in Beagle dog at 5 mg/kg, po; format: ADME, organism-based, Canis lupus familiaris; set-up: dose 5 mg/kg, route oral; details: in vivo
[7] = Tmax in Beagle dog at 5 mg/kg, po; format: ADME, organism-based, Canis lupus familiaris; set-up: dose 5 mg/kg, route oral; details: in vivo
[8] = Half life in Beagle dog at 5 mg/kg, po; format: ADME, organism-based, Canis lupus familiaris; set-up: dose 5 mg/kg, route oral; details: in vivo
Canis familiaris [9] = species: Canis familiaris; details: dog, in vivo, po, 5 mg/kg
Description: AUC in Beagle dog at 5 mg/kg, po

SMILES	IC50 (Cyclooxygenase-2) [nM]	Ratio (Canis lupus familiaris)	IC50 [1] [µM]	further results
CCC(CC)Oc1c(C)c(C(F)(F)F)nn1-c1ccc(S(C)(=O)=O)cn1	> 500			
CC1CCC(Oc2c(C#N)c(C(F)(F)F)nn2-c2ccc(S(C)(=O)=O)cn2)C1 (stereo not drawn)	160	47	7.6	
CS(=O)(=O)c1ccc(-n2nc(C(F)(F)F)cc2OCC2CC2)nc1	> 500			
CS(=O)(=O)c1ccc(-n2nc(C(F)(F)F)c(C#N)c2Sc2ccccc2)nc1	60	3.6	0.2	
Cc1c(C(F)(F)F)nn(-c2ccc(S(C)(=O)=O)cn2)c1OCC(C)C	> 500			
CS(=O)(=O)c1ccc(-n2nc(C(F)(F)F)cc2OCc2ccncc2)nc1	> 500			
CS(=O)(=O)c1ccc(-n2nc(C(F)(F)F)c(C#N)c2OC2CCC2)nc1	550	46.3	25.3	
CCC(CC)Oc1cc(C(F)(F)F)nn1-c1ccc(S(C)(=O)=O)cn1	19600			
CS(=O)(=O)c1ccc(-n2nc(C(F)(F)F)c(C#N)c2SCc2ccccc2F)nc1	40	18.4	0.6	
CC(C)COc1cc(C(F)(F)F)nn1-c1ccc(S(C)(=O)=O)cn1	4100			
CS(=O)(=O)c1ccc(-n2nc(C(F)(F)F)cc2OCc2ccccc2)nc1	> 500			
CCC(COC)Oc1c(C#N)c(C(F)(F)F)nn1-c1ccc(S(C)(=O)=O)cn1 (stereo not drawn)	> 500			
CS(=O)(=O)c1ccc(-n2nc(C(F)(F)F)cc2OC2CCCCC2)nc1	> 500			
CS(=O)(=O)c1ccc(-n2nc(C(F)(F)F)cc2OCc2cccc(F)c2)nc1	> 500			
CC1CCCCC1Oc1c(C#N)c(C(F)(F)F)nn1-c1ccc(S(C)(=O)=O)cn1 (stereo not drawn)	200	35	7.1	
COc1cc(C(F)(F)F)nn1-c1ccc(S(C)(=O)=O)cn1	> 500			
C[C@@H]1CN(c2c(C#N)c(C(F)F)nn2-c2ccc(S(C)(=O)=O)cn2)C[C@H](C)O1	140	> 357	> 50	AUC (Canis familiaris [2]): 4830 ng·h/mL
CCC(C)Sc1c(C#N)c(C(F)(F)F)nn1-c1ccc(S(C)(=O)=O)cn1 (stereo not drawn)	< 50	> 29.5	1.5	
CCC(CC)Oc1c(C#N)c(C(F)(F)F)nn1-c1ccc(S(C)(=O)=O)cn1	< 500			
CC(C)Oc1c(Cl)c(C(F)(F)F)nn1-c1ccc(S(C)(=O)=O)cn1	> 500			
CC(C)C(C)Oc1c(C#N)c(C(F)(F)F)nn1-c1ccc(S(C)(=O)=O)cn1 (stereo not drawn)	90	127	11.8	
CS(=O)(=O)c1ccc(-n2nc(C(F)(F)F)cc2OC2CCCC2)nc1	> 500			
CCC(Oc1c(C#N)c(C(F)(F)F)nn1-c1ccc(S(C)(=O)=O)cn1)C(C)C (stereo not drawn)	170	> 287	> 50	

SMILES	IC50 (Cyclooxygenase-2) [nM]	Ratio (Canis lupus familiaris)	IC50 [1] [µM]	further results
CS(=O)(=O)c1ccc(-n2nc(C(F)(F)F)c(C#N)c2SCc2ccccc2)nc1	80	12.1	0.9	
CS(=O)(=O)c1ccc(-n2nc(C(F)(F)F)c(C#N)c2OCC2CC=CCC2)nc1 (stereo not drawn)	140	78	10.6	Cmax [3]: 363 ng/mL; Tmax [4]: 1 h; AUC (Canis familiaris [2]): 742 ng·h/mL; half-life [5]: 120 min
CS(=O)(=O)c1ccc(-n2nc(C(F)(F)F)c(C#N)c2SC2CCCCC2)nc1	100	31.2	3.2	
CC(C)Oc1cc(C(F)(F)F)nn1-c1ccc(S(C)(=O)=O)cn1	> 500			Cmax [6]: 679 ng/mL; Tmax [7]: 48 min; half-life [8]: 2090 min; AUC (Canis familiaris [9]): 6980 ng·h/mL
CCCSc1c(C#N)c(C(F)(F)F)nn1-c1ccc(S(C)(=O)=O)cn1	< 50	> 3.8	0.2	
CS(=O)(=O)c1ccc(-n2nc(C(F)(F)F)c(C#N)c2OC2CCCCCC2)nc1	70	117	8	
CC(C)COc1c(C#N)c(C(F)(F)F)nn1-c1ccc(S(C)(=O)=O)cn1	110	92	10	
CS(=O)(=O)c1ccc(-n2nc(C(F)(F)F)c(C#N)c2Oc2cccc3c2CCCC3)nc1	900	0.1	0.1	
Cc1cccc(Oc2c(C#N)c(C(F)(F)F)nn2-c2ccc(S(C)(=O)=O)cn2)c1C	170	0.3	0.1	
CCOCCSc1c(C#N)c(C(F)(F)F)nn1-c1ccc(S(C)(=O)=O)cn1	170	11.8	2	
CS(=O)(=O)c1ccc(-n2nc(C(F)(F)F)c(C#N)c2OC2CCCC2)nc1	210			
Cc1c(C(F)(F)F)nn(-c2ccc(S(C)(=O)=O)cn2)c1OC(C)C	> 500			
CS(=O)(=O)c1ccc(-n2nc(C(F)(F)F)cc2OCc2cccc3ccccc23)nc1	> 500			
CCCCCSc1c(C#N)c(C(F)(F)F)nn1-c1ccc(S(C)(=O)=O)cn1	300	11.7	3.5	
CS(=O)(=O)c1ccc(-n2nc(C(F)(F)F)c(C#N)c2OCC2CCCC2)nc1	60	6.8	0.4	
CS(=O)(=O)c1ccc(-n2nc(C(F)(F)F)c(C#N)c2OCC2CCC2)nc1	80			
CS(=O)(=O)c1ccc(-n2nc(C(F)(F)F)c(C#N)c2OC2CCOC2)nc1 (stereo not drawn)	> 500			
CC(C)CCCSc1c(C#N)c(C(F)(F)F)nn1-c1ccc(S(C)(=O)=O)cn1	400	8.1	3.3	
CCCC(C)Oc1c(C#N)c(C(F)(F)F)nn1-c1ccc(S(C)(=O)=O)cn1 (stereo not drawn)	> 500			
CCCCOc1cc(C(F)(F)F)nn1-c1ccc(S(C)(=O)=O)cn1	> 500			
C=C1CCC(COc2c(C#N)c(C(F)(F)F)nn2-c2ccc(S(C)(=O)=O)cn2)CC1	< 90	340	29.7	
CS(=O)(=O)c1ccc(-n2nc(C(F)(F)F)c(C#N)c2Oc2ccccc2)nc1	> 500			
